Laboratory results reported in patent EP2681209B1, “COMPOUNDS AND METHODS FOR THE TREATMENT OF PAIN AND OTHER DISORDERS” (Aquilus Pharmaceuticals, Inc, priority 2011, dated 2012).

Assays:
[1] = system: FVB male mice; assay: Spinal nerve ligation (SNL) mouse model of neuropathic pain, intraperitoneal administration, von Frey tactile allodynia test; assay type: in vivo; details: for 50% paw withdrawal threshold, Mean, Day 1 / 50% paw withdrawal threshold, Mean, Day 2 / 50% paw withdrawal threshold, Mean, Day 5 / 50% paw withdrawal threshold, Mean, Day 6 / 50% paw withdrawal threshold, Mean, Day 7: IP 100 µl/mouse (approx. 3.3mg/Kg) daily injections day 1-5; for 50% paw withdrawal threshold, Mean, Day 0 Postoperative Baseline: group baseline after SNL injury, before first IP injection, von Frey
Description: To measure the neuropathic pain inhibiting affects of the MMP inhibitors of the present invention, the spinal nerve ligation (SNL) mouse model was run on a select number of compounds. This model which began with the work of Bennet and coworkers (Bennet, G.J. et al. Pain, 33, (1988), 87-107) and was optimized by Kim and Chung (Kim, S.H.; Chung, J.M. Pain, 50, (1992), 355-363) entails first, under magnification, the removal of one-third of the transverse process and then identifying and then dissecting free the L5 spinal nerve from the adjacent L4 spinal nerve in the mouse. The L5 spinal nerve is then tightly ligated using 6.0 silk suture. The nerve injury leads to hyperalgesia which manifests itself by enhanced responses to mechanical, heat and/or cooling stimuli. In this case, mechanical hyperalgesia is tested via Von Frey monofilaments in which filaments of varying thicknesses and bending force are individually applied to the plantar surface of the foot of the mouse. The threshold force necessary for paw withdrawal decreases dramatically after the nerve surgery. Potent pain inhibitors will reverse this affect resulting in greater force needing to be applied to cause the rodent paw to withdrawal.
Tactile Allodynia Test. Mechanical allodynia was measured using the calibrated von Frey filaments (Semmes-Weinstein monofilaments; Stoelting, Wood Dale, IL, U.S.A.). The plantar surface of the left injured paw of each animal was tested as described by Chaplan et al. (Journal of Neuroscience Methods, 53, (1994), 55-63). The Fifty percent paw withdrawal threshold response was determined by sequentially increasing or decreasing the stimulus strength according to the "up-down method" of Dixon (Annual Review Pharmacology Toxicology, 20, (1980), 441-462). For mice, […] von Frey filaments were used, with approximately equal logarithmic incremental bending forces (von Frey number: 1.65, 2.36, 2.44, 2.83, 3.22, 3.61, 3.84, 4.08, and 4.17; equivalent to 0.005, 0.02, 0.03, 0.07, 0.17, 0.41, 0.69, 1.20, and 1.48g force, respectively).
Prior to testing, each animal was placed in a suspended clear plastic chamber with a wire mesh bottom and acclimated for 15 minutes. Testing was initiated with the 0.07 g (handle marking of 2.83) applied perpendicularly to the plantar surface of the affected hind paw; each filament was applied with enough pressure to cause a buckle effect. The absence of a paw lifting/withdrawal response after 6 s prompted the use of the next higher weight filament. Paw withdrawal, indicating a positive response, prompted the use of a weaker filament. After the initial positive response (i.e., paw withdrawal), the testing continued for four additional measurements, and was used to calculate the response threshold. Four consecutive positive responses received a score of 0.001 g, and five consecutive negative responses (i.e., no paw withdrawal) received a score of 1.5 g.
Analyses for Tactile Allodynia Testing. The 50% paw withdrawal threshold was calculated (PWT; Luo and Calcutt, J. Pharmacology Experimental Therapeutics, 303(3), (2002), 1199-1205; Chaplan et al. Journal of Neuroscience Methods, 53, (1994), 55-63) using the formula: 10(Xf + κδ)/10,000 [formula] where Xf is the final von Frey filament used (log units), κ is a value that analyzes the response pattern (taken from the table published by Chaplan et al., 1994), and δ is the mean difference between stimuli (log units).
Except for the mode of administration, number of mice/group and the number of injections and amount per injection of compound given, the rest of the study was done in the same manner (in regards to the surgeries and tactile allodynia testing and analysis) as Experiment 110. 3.2 mg of each of the MMP inhibitors #5 and #10 were dissolved in 320 microliters of DMSO. To the solution was then added 32 microliters of Tween 80, followed by 2850 microliters of phosphate buffered saline (PBS). This gave a final concentration of 10% DMSO, 1% Tween and 1mg/ml compound. […]

[2] = system: MMP-9; assay: Gelatin zymography of mouse spinal cord for MMP-9 rebound effect; assay type: in vivo, mice
Description: There were three groups in the study comprising six mice for each group (Naive, control and compound 10 groups).

[3] = system: MMP-2; assay: Gelatin zymography of mouse spinal cord for MMP-2 rebound effect; assay type: in vivo, mice
[4] = 0.5 and 2 hours after naloxone precipitated withdrawal and cessation of compound administration, versus control
[5] = after discontinuation of compound in naloxone precipitated withdrawal model

Structure (SMILES) | 50% paw withdrawal threshold, Mean, Day 1 [1] | 50% paw withdrawal threshold, Mean, Day 2 [1] | 50% paw withdrawal threshold, Mean, Day 5 [1] | 50% paw withdrawal threshold, Mean, Day 6 [1] | 50% paw withdrawal threshold, Mean, Day 7 [1] | 50% paw withdrawal threshold, Mean, Day 0 Postoperative Baseline [1] | reversal of mechanical alodynia ([1]; i.p. administration, by day 5) | MMP-9 levels in spinal cord [2, 4] | MMP-9 rebound effect due to discontinuation [2, 5] | MMP-2 levels in spinal cord [3, 4] | MMP-2 rebound effect due to discontinuation [3, 5]
[2H]C([2H])([2H])c1ccc(C#Cc2ccc(S(=O)(=O)N[C@H](Cc3c[nH]c4ccccc34)C(=O)O)s2)cc1 [Compound 10, (R)-3-(1H-Indol-3-yl)-2-[5-(4-trideuteromethyl-phenylethynyl)-thiophene-2-sulfonylamino]-propionic acid-(D3, 98%)] | 0.170 g | 0.350 g | 1.470 g | 0.867 g | 0.250 g | 0.096 g | complete reversal of mechanical alodynia by day 5 | stayed the same or were slightly lower than the control | No evidence of a MMP-2 and/or MMP-9 rebound effect | stayed the same or were slightly lower than the control | No evidence of a MMP-2 and/or MMP-9 rebound effect
Cc1ccc(C#Cc2ccc(S(=O)(=O)N[C@H](Cc3c[nH]c4ccccc34)C(=O)O)s2)cc1 [Compound 5, (R)-3-(1H-Indol-3-yl)-2-(5-p-tolylethynyl-thiophene-2-sulfonylamino)-propionic acid] | 0.078 g | 0.117 g | 0.238 g | 0.099 g | 0.128 g | 0.046 g |  |  |  |  | 
